Read-outs that look alike come from different tables or passages of the source.
Key:
THP-1 = THP-1 host cell toxicity in the intramacrophage assay; type: cell-based
Description: (§1) These assays were carried out as previously described.[25],[36],[37]

[1] = tested on: L. donovani intracellular amastigotes; experiment: L. donovani intramacrophage (intracellular amastigote) assay; type: cell-based, Leishmania donovani; conditions: read-out: intramacrophage EC50
Description: (§2) The clonal L. donovani cell line LdBOB (derived from MHOM/SD/62/1S-CL2D) was used in our in vitro compound screening and mechanism of action studies. Promastigotes were grown at 26 °C in modified M199 media with axenic amastigotes grown at 37 °C, as previously described.[35] All animal studies were carried using L. donovani (LV9; WHO designation: MHOM/ET/67/HU3).
as §1

L. major NMT (LmNMT) = molecular target: T1, L. major NMT (LmNMT) (Leishmania major, UniProt Q4Q5S8); experiment: LmNMT enzymatic assay (scintillation proximity, [3H]myristoyl-CoA, CAP5.5 peptide); type: biochemical
T1 construct: Recombinant LmNMT was expressed and purified as previously described; made in house
T1 sequence (Q4Q5S8 entry or part of it): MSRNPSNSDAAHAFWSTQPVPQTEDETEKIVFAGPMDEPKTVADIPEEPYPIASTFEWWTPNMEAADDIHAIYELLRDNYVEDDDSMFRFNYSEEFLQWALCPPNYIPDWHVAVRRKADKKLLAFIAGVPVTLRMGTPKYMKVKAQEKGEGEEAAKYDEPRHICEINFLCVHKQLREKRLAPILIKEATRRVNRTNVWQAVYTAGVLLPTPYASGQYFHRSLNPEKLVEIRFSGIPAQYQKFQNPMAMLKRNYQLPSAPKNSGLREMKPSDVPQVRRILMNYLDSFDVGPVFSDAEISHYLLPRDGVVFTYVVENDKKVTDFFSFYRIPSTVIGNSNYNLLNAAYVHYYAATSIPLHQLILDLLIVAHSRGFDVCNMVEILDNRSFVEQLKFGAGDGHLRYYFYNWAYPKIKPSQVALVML

[2] = tested on: L. donovani axenic amastigotes; experiment: L. donovani axenic amastigote compound sensitivity assay; type: cell-based, Leishmania donovani; conditions: read-out: axenic amastigote EC50
Description: as §2, §1

[3] = tested on: L. donovani promastigotes; experiment: L. donovani promastigote compound sensitivity assay; type: cell-based, Leishmania donovani; conditions: read-out: promastigote EC50
Description: as §2, §1

human NMT (HsNMT) = molecular target: T2, human NMT (HsNMT) (Homo sapiens, UniProt P30419); experiment: counter-screen against human NMT; type: biochemical
T2 sequence (P30419 1-496): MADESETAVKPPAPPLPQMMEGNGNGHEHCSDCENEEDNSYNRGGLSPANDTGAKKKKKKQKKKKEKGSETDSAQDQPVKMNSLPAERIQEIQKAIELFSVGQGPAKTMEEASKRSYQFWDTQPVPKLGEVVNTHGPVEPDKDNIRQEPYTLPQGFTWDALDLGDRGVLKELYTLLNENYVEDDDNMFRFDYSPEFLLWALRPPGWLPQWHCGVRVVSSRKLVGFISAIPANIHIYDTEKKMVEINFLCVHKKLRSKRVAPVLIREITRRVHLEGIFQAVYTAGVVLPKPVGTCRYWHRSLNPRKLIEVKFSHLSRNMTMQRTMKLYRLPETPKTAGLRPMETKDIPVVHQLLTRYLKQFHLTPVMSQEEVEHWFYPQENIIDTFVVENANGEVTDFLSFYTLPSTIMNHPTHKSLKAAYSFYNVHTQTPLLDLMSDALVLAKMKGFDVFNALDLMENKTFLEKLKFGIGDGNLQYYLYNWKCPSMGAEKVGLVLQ

Vero cells = experiment: host Vero cell toxicity; type: cell-based; conditions: Chlorocebus sabaeus, read-out: EC50 against host Vero cells
Trypanosoma brucei [4] = conditions: cited from earlier work
[5] = tested on: intracellular amastigote form of T. cruzi; experiment: T. cruzi intracellular amastigote assay; type: cell-based; conditions: Trypanosoma cruzi; read-out: EC50 against T. cruzi intracellular amastigotes
[6] = tested on: L. donovani amastigotes (LV9); experiment: mouse model of VL (BALB/c mice infected with L. donovani LV9)
Trypanosoma brucei [7] = tested on: Trypanosoma brucei; parameters: method as in PMID 20360736; conditions: cited from earlier work
[8] = tested on: Trypanosoma brucei N-myristoyltransferase (TbNMT); conditions: cited from earlier work
[9] = Homo sapiens, THP-1; read-out: THP-1 EC50
[10] = Leishmania donovani, L. donovani intracellular amastigotes
[11] = Leishmania donovani, L. donovani LdBOB
[12] = Homo sapiens, THP-1, read-out: THP-1 EC50

| EC50 [1, 10] [µM] | IC50 (L. major NMT (LmNMT)) [µM] | EC50 [2, 11] [µM] | EC50 [3, 11] [µM] | IC50 (human NMT (HsNMT)) [µM] | SMILES | EC50 (THP-1; [9]) [µM] | other results |
| --- | --- | --- | --- | --- | --- | --- | --- |
| > 50 | 0.08 | 9.2 ± 0.4 | 10 ± 0.4 | 0.08 | Cc1nn(C)c(C)c1N(C)S(=O)(=O)c1c(Cl)cc(N2CCN(C(=O)c3cnn(C)c3)CC2)cc1Cl [compound 5, 2,6-Dichloro-N-methyl-4-(4-(1-methyl-1H-pyrazole-4-carbonyl)piperazin-1-yl)-N-(1,3,5-trimethyl-1H-pyrazol-4-yl)benzenesulfonamide] | > 50 |  |
| > 50 | 0.03 | 5.1 ± 0.2 | 8.2 ± 0.5 | 0.008 | Cc1nn(C)c(C)c1N(C)S(=O)(=O)c1c(Cl)cc(N2CCN(C(=O)c3ccc(N)cc3)CC2)cc1Cl [compound 8, 4-(4-(4-Aminobenzoyl)piperazin-1-yl)-2,6-dichloro-N-methyl-N-(1,3,5-trimethyl-1H-pyrazol-4-yl)benzenesulfonamide] | > 50 |  |
|  |  |  |  |  | Cc1nn(C)c(C)c1N(C(F)F)S(=O)(=O)c1c(Cl)cc(CCCC2CCN(C)CC2)cc1Cl [compound 2] |  | EC50 (THP-1; [12]): 15.8 µM; EC50 (Vero cells): 5.1 µM; efficacy in the stage 2 mouse model (in words) (Trypanosoma brucei [4]): moderate efficacy; EC50 ([1]; Leishmania donovani): 2.4 ± 0.8 µM; EC50 [5]: 0.47 µM; reduction in liver parasite burden (LDU) versus vehicle ([6]; 50 mg kg^-1 orally b.i.d. for 5 days): 52%; EC50 ([2]; Leishmania donovani): 0.2 ± 0.006 µM; EC50 ([3]; Leishmania donovani): 0.04 ± 0.001 µM |
| > 50 | 0.1 | 0.3 ± 0.01 | 5.8 ± 0.4 | 0.5 | Cc1nn(C)c(C)c1N(C)S(=O)(=O)c1c(Cl)cc(N2CCN(C(=O)c3cccnc3)CC2)cc1Cl [compound 7, 2,6-Dichloro-N-methyl-4-(4-nicotinoylpiperazin-1-yl)-N-(1,3,5-trimethyl-1H-pyrazol-4-yl)benzenesulfonamide] | > 50 |  |
|  |  |  |  |  | Cc1nn(C)c(C)c1N(C)S(=O)(=O)c1c(Cl)cc(CCCC2CCN(C)CC2)cc1Cl [compound 3] |  | EC50 (THP-1; [12]): > 50 µM; EC50 ([1]; Leishmania donovani): 7.1 ± 1.1 µM; EC50 ([2]; Leishmania donovani): 8.2 ± 0.6 µM; EC50 ([3]; Leishmania donovani): 0.07 ± 0.004 µM |
|  |  |  |  |  | O.O.O.O.O.O.O.O.O.O=C([O-])[C@@H]1[O][Sb](=[O])([O][Sb]2(=[O])[O][C@H]([C@H](O)CO)[C@H](O)[C@H](C(=O)[O-])[O]2)[O][C@H]([C@H](O)CO)[C@@H]1O.[Na+].[Na+].[Na+] (some centres unmarked) [sodium stibogluconate] |  | reduction in liver parasite burden (LDU) versus vehicle ([6]; 15 mg kg^-1 subcutaneous q.d. for 5 days): 52% |
|  |  |  |  |  | Cc1nn(C)c(C)c1NS(=O)(=O)c1c(Cl)cc(-c2ccnc(N3CCNCC3)c2)cc1Cl [DDD85646] |  | efficacy in mouse models of stage 1 HAT (in words) (Trypanosoma brucei [7]): curative; activity in the stage 2 HAT mouse model (in words) (Trypanosoma brucei [4]): not active; inhibition of TbNMT (in words) [8]: low nM inhibitor |
|  |  |  |  |  | CCCCCCCCCCCCCCCCOP(=O)([O-])OCC[N+](C)(C)C [miltefosine] |  | reduction in liver parasite burden (LDU) versus vehicle ([6]; 30 mg kg^-1 orally q.d. for 5 days): 88% |
| > 50 | 0.06 | > 50 | > 50 | 0.1 | Cc1nn(C)c(C)c1N(C)S(=O)(=O)c1c(Cl)cc(N2CCN(C(=O)c3cn[nH]c3)CC2)cc1Cl [compound 6, 4-(4-(1H-Pyrazole-4-carbonyl)piperazin-1-yl)-2,6-dichloro-N-methyl-N-(1,3,5-trimethyl-1H-pyrazol-4-yl)benzenesulfonamide] | > 50 |  |
| > 50 | 0.03 | 2.7 ± 0.08 | 18.3 ± 0.1 | 0.02 | Cc1nn(C)c(C)c1N(C)S(=O)(=O)c1c(Cl)cc(N2CCN(C(=O)c3ccn[nH]3)CC2)cc1Cl [compound 4, 4-(4-(1H-Pyrazole-5-carbonyl)piperazin-1-yl)-2,6-dichloro-N-methyl-N-(1,3,5-trimethyl-1H-pyrazol-4-yl)benzenesulfonamide] | > 50 |  |
|  |  |  |  |  | Cc1nn(C)c(C)c1N[S+](=O)([O-])c1ccc(CCCC2CCNCC2)cc1 [compound 1] |  | EC50 (THP-1; read-out: THP-1 EC50): > 50 µM; EC50 ([1]; L. donovani intracellular amastigotes): > 50 µM; IC50 (L. major NMT (LmNMT); 5 nM LmNMT, 0.5 μM CAP5.5, 0.125 μM myristoyl-CoA, read-out: LmNMT IC50): 0.4 µM; EC50 ([2]; L. donovani LdBOB): > 50 µM; EC50 ([3]; L. donovani LdBOB): > 50 µM |

| SMILES | EC50 [1, 10] [µM] | IC50 (L. major NMT (LmNMT)) [µM] | EC50 [2, 11] [µM] | EC50 [3, 11] [µM] | IC50 (human NMT (HsNMT)) [µM] | EC50 (THP-1; [9]) [µM] | other results |
| --- | --- | --- | --- | --- | --- | --- | --- |
| Cc1nn(C)c(C)c1N(C)S(=O)(=O)c1c(Cl)cc(N2CCN(C(=O)Cc3ccccc3)CC2)cc1Cl [compound 9, 2,6-Dichloro-N-methyl-4-(4-(2-phenylacetyl)piperazin-1-yl)-N-(1,3,5-trimethyl-1H-pyrazol-4-yl)benzenesulfonamide] | 40.5 ± 13.4 | 10 | 2.2 ± 0.03 | 6.3 ± 0.3 | 6.3 | > 50 | potency against LmNMT (in words) (L. major NMT (LmNMT)): poor activity |

Reference: article PMC6332449, “Pharmacological Validation of N-Myristoyltransferase as a Drug Target in Leishmania donovani” (ACS Infectious Diseases, 2018)
